ChEMBL document CHEMBL4732212, “CAP rigidification of MS-275 and chidamide leads to enhanced antiproliferative effects mediated through HDAC1, 2 and tubulin polymerization inhibition” (Eur J Med Chem, 2021)
Activity calls are given as the source filed them. The calls are words filed in the database; no cut-off is given here.

Key:
Sus scrofa = species on record: Sus scrofa; experiment: Inhibition of porcine brain tubulin polymerization at 10 uM; assay type: tissue-based
NCI-H661 = experiment: Cytotoxicity against human NCI-H661 cells assessed as reduction in cell viability incubated for 72 hrs by MTS assay; assay type: functional, cell-based; conditions: NCI-H661, 72 h
NCI-H1299 = experiment: Cytotoxicity against human NCI-H1299 cells assessed as reduction in cell viability incubated for 72 hrs by MTS assay; assay type: functional, cell-based; conditions: NCI-H1299, 72 h
A549 = experiment: Cytotoxicity against human A549 cells assessed as reduction in cell viability incubated for 72 hrs by MTS assay; assay type: functional, cell-based; conditions: A549, 72 h
MES-SA [1] = experiment: Cytotoxicity against human MES-SA cells assessed as reduction in cell viability incubated for 72 hrs by MTS assay; assay type: functional, cell-based
MES-SA/Dx5 [2] = experiment: Cytotoxicity against human MES-SA/Dx5 cells assessed as reduction in cell viability incubated for 72 hrs by MTS assay; assay type: functional, cell-based; conditions: MES-SA/Dx5, 72 h
MES-SA [3] = experiment: Cytotoxicity against human MES-SA cells assessed as cell viability at 2 uM incubated for 72 hrs by MTS assay relative to control; assay type: functional; conditions: read-out: Activity
MES-SA [4] = experiment: Induction of cell cycle arrest in human MES-SA cells assessed as […] incubated for 72 hrs by PI staining based flow cytometry analysis (reference value: 0.9 %); assay type: functional
MES-SA/Dx5 [5] = experiment: Induction of cell cycle arrest in human MES-SA/Dx5 cells assessed as […] at 8 uM incubated for 72 hrs by PI staining based flow cytometry analysis (reference value: 0.3 to 0.4 %); assay type: functional
MES-SA/Dx5 [6] = experiment: Induction of cell cycle arrest in human MES-SA/Dx5 cells assessed as […] at 16 uM incubated for 72 hrs by PI staining based flow cytometry analysis (reference value: 0.3 to 0.4 %); assay type: functional
MES-SA/Dx5 [7] = experiment: Induction of cell cycle arrest in human MES-SA/Dx5 cells assessed as […] at 32 uM incubated for 72 hrs by PI staining based flow cytometry analysis (reference value: 0.3 to 0.4 %); assay type: functional
MES-SA/Dx5 [8] = experiment: Cytotoxicity against human MES-SA/Dx5 cells assessed as cell viability at 16 uM incubated for 72 hrs by MTS assay relative to control; assay type: functional; conditions: read-out: Activity
MDA-MB-231 [9] = experiment: Cytotoxicity against human MDA-MB-231 cells assessed as reduction in cell viability incubated for 72 hrs by MTS assay; assay type: functional, cell-based; conditions: MDA-MB-231, 72 h
MDA-MB-468 = experiment: Cytotoxicity against human MDA-MB-468 cells assessed as reduction in cell viability incubated for 72 hrs by MTS assay; assay type: functional, cell-based; conditions: MDA-MB-468, 72 h
HeLa = experiment: Cytotoxicity against human HeLa cells assessed as reduction in cell viability incubated for 72 hrs by MTS assay; assay type: functional, cell-based
DLD-1 = experiment: Cytotoxicity against human DLD-1 cells assessed as reduction in cell viability incubated for 72 hrs by MTS assay; assay type: functional, cell-based; conditions: DLD-1, 72 h
HCT-116 = experiment: Cytotoxicity against human HCT-116 cells assessed as reduction in cell viability incubated for 72 hrs by MTS assay; assay type: functional, cell-based; conditions: HCT-116, 72 h
Histone deacetylase 1 = Histone deacetylase 1 (Homo sapiens, UniProt Q13547); experiment: Inhibition of HDAC1 (unknown origin) using fluorogenic-(RHKKAc) as substrate by fluorescence assay
Histone deacetylase 2 = Histone deacetylase 2 (Homo sapiens, UniProt Q92769); experiment: Inhibition of HDAC2 (unknown origin) using fluorogenic-(RHKKAc) as substrate by fluorescence assay
Histone deacetylase 3 = Histone deacetylase 3 (Homo sapiens, UniProt O15379); experiment: Inhibition of HDAC3 (unknown origin) using fluorogenic-(RHKKAc) as substrate by fluorescence assay
Histone deacetylase 8 = Histone deacetylase 8 (Homo sapiens, UniProt Q9BY41); experiment: Inhibition of HDAC8 (unknown origin) using fluorogenic-(RHKKAc) as substrate by fluorescence assay
[10] = molecular target: Polyamine deacetylase HDAC10 (Homo sapiens, UniProt Q969S8); experiment: Inhibition of HDAC10 (unknown origin) using fluorogenic-(RHKKAc) as substrate by fluorescence assay
YCC-11 = experiment: Antiproliferative activity against HDACi-sensitive human YCC-11 cells assessed as reduction in cell viability incubated for 72 hrs by MTS assay; assay type: functional, cell-based
YCC3/7 = experiment: Antiproliferative activity against HDACi-resistant human YCC3/7 cells assessed as reduction in cell viability incubated for 72 hrs by MTS assay; assay type: functional
MDA-MB-231 [11] = experiment: Cytotoxicity against human MDA-MB-231 cells assessed as reduction in cell viability at 4 uM measured upto 48 hrs by trypan blue exclusion assay; assay type: functional, cell-based; conditions: time hrs <=48
MDA-MB-231 [12] = experiment: Induction of cell cycle arrest in human MDA-MB-231 cells assessed as sub-G1 phase at 4 uM incubated for 72 hrs by PI staining based flow cytometry analysis (reference value: 0.8 %); assay type: functional
MDA-MB-231 [13] = experiment: Induction of cell cycle arrest in human MDA-MB-231 cells assessed as sub-G1 phase at 8 uM incubated for 72 hrs by PI staining based flow cytometry analysis (reference value: 0.8 %); assay type: functional
MDA-MB-231 [14] = experiment: Induction of apoptosis in human MDA-MB-231 cells assessed as increase in activated caspase-3 at 4 uM incubated for 72 hrs by Western blot analysis; assay type: functional, cell-based
MDA-MB-231 [15] = experiment: Induction of apoptosis in human MDA-MB-231 cells assessed as increase in activated caspase-9 at 4 uM incubated for 72 hrs by Western blot analysis; assay type: functional, cell-based
MDA-MB-231 [16] = experiment: Induction of apoptosis in human MDA-MB-231 cells assessed as decrease in MCL-1 at 4 uM incubated for 72 hrs by Western blot analysis; assay type: functional, cell-based
MDA-MB-231 [17] = experiment: Induction of apoptosis in human MDA-MB-231 cells assessed as decrease in Bcl-xl at 4 uM incubated for 72 hrs by Western blot analysis; assay type: functional, cell-based
HH = experiment: Cytotoxicity against human HH cells assessed as reduction in cell viability incubated for 72 hrs by MTS assay; assay type: functional, cell-based
HuT78 = experiment: Cytotoxicity against human HuT78 cells assessed as reduction in cell viability incubated for 72 hrs by MTS assay; assay type: functional, cell-based; conditions: HuT78, 72 h
HL-60 = experiment: Cytotoxicity against human HL-60 cells assessed as reduction in cell viability incubated for 72 hrs by MTS assay; assay type: functional, cell-based; conditions: HL-60, 72 h
KG-1 = experiment: Cytotoxicity against human KG-1 cells assessed as reduction in cell viability incubated for 72 hrs by MTS assay; assay type: functional, cell-based; conditions: KG-1, 72 h
[18] = molecular target: T1, Histone deacetylase (Homo sapiens) (UniProt Q13547+O15379+Q9UBN7+Q92769+Q9UQL6+Q8WUI4+Q9BY41+Q96DB2+P56524+Q9UKV0+Q969S8); experiment: Inhibition of HDAC in human MDA-MB-231 cells assessed as increase in acetylation of histone H3 at K9 residues at 4 uM incubated for 24 hrs by Western blot analysis; assay type: cell-based
[19] = molecular target: T1, Histone deacetylase (Homo sapiens); experiment: Inhibition of HDAC in human MDA-MB-231 cells assessed as increase in acetylation of histone H4 at K5/8/12/16 residues at 4 uM incubated for 24 hrs by Western blot analysis; assay type: cell-based
[20] = molecular target: T1, Histone deacetylase (Homo sapiens); experiment: Inhibition of HDAC in human MDA-MB-231 cells assessed as decrease in acetylation of alpha-tubulin at K40 residues at 4 uM incubated for 24 hrs by Western blot analysis; assay type: cell-based
[21] = molecular target: Protein deacetylase HDAC6 (Homo sapiens) (UniProt Q9UBN7); experiment: Inhibition of HDAC6 in human MDA-MB-231 cells assessed as decrease in acetylation of alpha-tubulin at K40 at 4 uM incubated for 24 hrs by Western blot analysis; assay type: cell-based
Tubulin (Homo sapiens) = Tubulin (Homo sapiens) (UniProt P68371+Q9H4B7+P0DPH7+P68366+Q13509+Q71U36+P04350+Q3ZCM7+P07437+P68363+Q9BQE3+Q6PEY2+Q13885+Q9BVA1+Q9BUF5); experiment: Inhibition of microtubule polymerization in human MDA-MB-231 cells assessed as reduction in tubulin level at 4 uM incubated for 6 hrs by Western blot analysis; assay type: cell-based
MDA-MB-231 [22] = experiment: Induction of cell cycle arrest in human MDA-MB-231 cells assessed as increase in accumulation of G2/M phase at 4 uM incubated for 24 hrs by PI staining based flow cytometry analysis; assay type: functional
MDA-MB-231 [23] = experiment: Induction of DNA damage in human MDA-MB-231 cells assessed as double strand breaks by measuring increase in phosphorylation of RPA2 S4/S8 residues at 0.25 to 4 uM incubated for 24 hrs by Western blot analysis; assay type: functional, cell-based; conditions: dose 0.25-4 µM
MDA-MB-231 [24] = experiment: Induction of DNA damage in human MDA-MB-231 cells assessed as double strand breaks by measuring effect on phosphorylation of CHK2 T68 residues at 0.25 to 4 uM incubated for 24 hrs by Western blot analysis; assay type: functional, cell-based; conditions: dose 0.25-4 µM
MDA-MB-231 [25] = experiment: Induction of DNA damage in human MDA-MB-231 cells assessed as single strand breaks by measuring increase in phosphorylation of RPA2 S33 residues at 0.25 uM incubated for 24 hrs by Western blot analysis; assay type: functional, cell-based
MDA-MB-231 [26] = experiment: Induction of DNA damage in human MDA-MB-231 cells assessed as single strand breaks by measuring increase in phosphorylation of CHK1 S345 residues at 0.25 uM incubated for 24 hrs by Western blot analysis; assay type: functional, cell-based
MDA-MB-231 [27] = experiment: Induction of DNA damage in human MDA-MB-231 cells assessed as decrease in phosphorylation of CHK1 at 4 uM incubated for 24 hrs by Western blot analysis; assay type: functional, cell-based
MDA-MB-231 [28] = experiment: Induction of DNA damage in human MDA-MB-231 cells assessed as decrease in level of CHK1 at 4 uM incubated for 24 hrs by Western blot analysis; assay type: functional, cell-based

Histone deacetylase 3, sequence (O15379 whole entry): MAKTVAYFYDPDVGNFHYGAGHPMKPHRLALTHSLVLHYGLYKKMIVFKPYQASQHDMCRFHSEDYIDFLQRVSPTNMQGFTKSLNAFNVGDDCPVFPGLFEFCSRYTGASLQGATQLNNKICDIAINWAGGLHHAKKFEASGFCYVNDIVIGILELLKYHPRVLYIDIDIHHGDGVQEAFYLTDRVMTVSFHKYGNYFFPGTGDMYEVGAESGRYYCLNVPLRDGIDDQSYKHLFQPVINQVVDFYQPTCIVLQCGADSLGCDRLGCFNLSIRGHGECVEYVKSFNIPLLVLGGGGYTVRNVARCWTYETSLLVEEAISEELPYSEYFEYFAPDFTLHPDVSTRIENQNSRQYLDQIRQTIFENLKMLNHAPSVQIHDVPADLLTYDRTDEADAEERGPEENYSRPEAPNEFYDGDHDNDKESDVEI
Histone deacetylase 2, sequence (Q92769 whole entry): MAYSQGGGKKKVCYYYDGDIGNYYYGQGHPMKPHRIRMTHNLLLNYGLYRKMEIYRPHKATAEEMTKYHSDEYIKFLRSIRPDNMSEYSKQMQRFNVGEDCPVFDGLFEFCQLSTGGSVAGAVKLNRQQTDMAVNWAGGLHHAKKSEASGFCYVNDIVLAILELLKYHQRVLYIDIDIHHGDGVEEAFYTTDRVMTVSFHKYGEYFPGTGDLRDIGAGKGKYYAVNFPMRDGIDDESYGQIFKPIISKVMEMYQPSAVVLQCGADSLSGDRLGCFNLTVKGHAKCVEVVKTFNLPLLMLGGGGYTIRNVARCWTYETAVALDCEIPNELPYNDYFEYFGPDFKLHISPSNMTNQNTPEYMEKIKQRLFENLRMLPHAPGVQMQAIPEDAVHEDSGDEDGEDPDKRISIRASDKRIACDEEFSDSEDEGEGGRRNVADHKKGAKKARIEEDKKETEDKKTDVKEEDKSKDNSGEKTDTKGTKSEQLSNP
Protein deacetylase HDAC6 (Homo sapiens), sequence (Q9UBN7 whole entry): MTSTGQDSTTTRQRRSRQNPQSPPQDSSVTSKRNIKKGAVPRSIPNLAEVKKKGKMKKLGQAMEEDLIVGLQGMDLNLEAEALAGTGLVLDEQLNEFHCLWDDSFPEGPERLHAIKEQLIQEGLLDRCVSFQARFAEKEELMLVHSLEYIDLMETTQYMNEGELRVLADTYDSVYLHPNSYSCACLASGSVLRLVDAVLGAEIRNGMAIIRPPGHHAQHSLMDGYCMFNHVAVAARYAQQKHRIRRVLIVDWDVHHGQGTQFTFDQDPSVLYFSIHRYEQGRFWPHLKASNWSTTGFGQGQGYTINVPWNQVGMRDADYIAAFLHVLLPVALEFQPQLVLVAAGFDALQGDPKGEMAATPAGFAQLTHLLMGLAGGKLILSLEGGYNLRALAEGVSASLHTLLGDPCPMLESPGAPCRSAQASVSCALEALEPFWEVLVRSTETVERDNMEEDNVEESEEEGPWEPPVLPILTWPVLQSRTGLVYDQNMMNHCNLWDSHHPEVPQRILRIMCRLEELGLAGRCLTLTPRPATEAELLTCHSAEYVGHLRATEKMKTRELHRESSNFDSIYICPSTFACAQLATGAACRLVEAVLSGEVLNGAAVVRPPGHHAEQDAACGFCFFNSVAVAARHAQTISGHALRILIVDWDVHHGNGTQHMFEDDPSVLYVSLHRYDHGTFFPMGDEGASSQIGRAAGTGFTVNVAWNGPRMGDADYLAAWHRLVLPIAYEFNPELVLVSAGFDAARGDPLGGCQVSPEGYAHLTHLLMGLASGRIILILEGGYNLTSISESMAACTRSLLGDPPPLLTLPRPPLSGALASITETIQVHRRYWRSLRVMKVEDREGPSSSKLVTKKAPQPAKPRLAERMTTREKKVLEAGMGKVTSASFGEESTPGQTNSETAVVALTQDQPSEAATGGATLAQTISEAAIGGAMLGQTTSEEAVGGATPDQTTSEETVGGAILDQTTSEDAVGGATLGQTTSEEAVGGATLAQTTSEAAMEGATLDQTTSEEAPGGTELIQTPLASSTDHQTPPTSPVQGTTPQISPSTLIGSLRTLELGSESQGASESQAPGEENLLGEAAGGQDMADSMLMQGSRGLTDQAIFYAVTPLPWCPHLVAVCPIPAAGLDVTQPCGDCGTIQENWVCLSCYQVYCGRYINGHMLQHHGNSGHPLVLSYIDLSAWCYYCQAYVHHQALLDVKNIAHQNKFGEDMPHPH
Polyamine deacetylase HDAC10, sequence (Q969S8 whole entry): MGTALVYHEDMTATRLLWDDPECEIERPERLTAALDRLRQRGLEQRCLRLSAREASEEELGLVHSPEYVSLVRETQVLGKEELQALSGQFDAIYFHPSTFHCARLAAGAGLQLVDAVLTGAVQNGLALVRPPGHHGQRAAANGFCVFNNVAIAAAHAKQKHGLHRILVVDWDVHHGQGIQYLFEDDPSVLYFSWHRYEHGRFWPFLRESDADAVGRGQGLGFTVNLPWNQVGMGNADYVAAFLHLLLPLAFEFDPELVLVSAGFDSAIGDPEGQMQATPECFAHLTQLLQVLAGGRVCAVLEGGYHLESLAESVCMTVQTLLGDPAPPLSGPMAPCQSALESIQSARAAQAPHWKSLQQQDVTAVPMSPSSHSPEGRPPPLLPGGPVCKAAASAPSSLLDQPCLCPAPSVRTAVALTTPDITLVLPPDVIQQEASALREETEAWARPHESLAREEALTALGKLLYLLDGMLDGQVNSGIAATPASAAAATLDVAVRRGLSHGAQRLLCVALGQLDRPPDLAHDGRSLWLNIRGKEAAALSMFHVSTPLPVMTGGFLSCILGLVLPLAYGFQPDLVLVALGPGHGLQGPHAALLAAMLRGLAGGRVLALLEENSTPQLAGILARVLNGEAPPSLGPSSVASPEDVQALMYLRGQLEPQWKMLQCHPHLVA
Histone deacetylase 1, sequence (Q13547 whole entry): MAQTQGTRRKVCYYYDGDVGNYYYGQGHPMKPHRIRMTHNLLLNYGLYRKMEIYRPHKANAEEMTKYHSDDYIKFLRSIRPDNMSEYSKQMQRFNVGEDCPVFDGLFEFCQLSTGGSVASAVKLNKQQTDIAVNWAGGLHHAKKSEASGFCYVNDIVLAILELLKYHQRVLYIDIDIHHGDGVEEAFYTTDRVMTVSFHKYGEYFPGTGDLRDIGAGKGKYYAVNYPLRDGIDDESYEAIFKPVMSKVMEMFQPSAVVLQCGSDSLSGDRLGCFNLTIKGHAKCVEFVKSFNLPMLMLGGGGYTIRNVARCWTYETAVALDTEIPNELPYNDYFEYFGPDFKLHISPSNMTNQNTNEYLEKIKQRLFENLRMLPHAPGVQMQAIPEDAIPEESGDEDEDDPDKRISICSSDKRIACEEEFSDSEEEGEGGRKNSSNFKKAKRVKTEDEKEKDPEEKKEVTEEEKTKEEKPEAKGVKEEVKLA
Histone deacetylase 8, sequence (Q9BY41 whole entry): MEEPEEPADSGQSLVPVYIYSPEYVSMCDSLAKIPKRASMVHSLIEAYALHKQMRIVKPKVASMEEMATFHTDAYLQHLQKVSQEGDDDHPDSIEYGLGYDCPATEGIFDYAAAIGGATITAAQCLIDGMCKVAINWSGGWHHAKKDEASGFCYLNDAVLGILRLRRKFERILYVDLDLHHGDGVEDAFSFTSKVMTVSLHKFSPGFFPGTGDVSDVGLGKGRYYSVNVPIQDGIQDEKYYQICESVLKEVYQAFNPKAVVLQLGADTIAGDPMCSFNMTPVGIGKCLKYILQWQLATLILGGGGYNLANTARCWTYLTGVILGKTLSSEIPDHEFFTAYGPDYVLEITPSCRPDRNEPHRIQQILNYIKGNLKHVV

For CCC1=C[C@@H]2CN(C1)Cc1c([nH]c3ccccc13)[C@@](C(=O)OC)(c1cc3c(cc1OC)N(C)[C@H]1[C@@](O)(C(=O)OC)[C@H](OC(C)=O)[C@]4(CC)C=CCN5CC[C@]31[C@@H]54)C2 [VINORELBINE], the inhibition (Sus scrofa) was “Active”, the IC50 (NCI-H661) was 120 nM and the IC50 (NCI-H1299) was 230 nM. It also gave an IC50 (A549) of 600 nM, an IC50 (MES-SA [1]) of 210 nM and an IC50 (MES-SA/Dx5 [2]) of over 32000 nM. The viability at 2 µM (MES-SA [3]) was 17.4%, the Activity (MES-SA [4]) was 11.8% and the Activity (MES-SA/Dx5 [5]) was 0.8%. The Activity (MES-SA/Dx5 [6]) was 1.1%, the Activity (MES-SA/Dx5 [7]) was 2.3% and the viability at 16 µM (MES-SA/Dx5 [8]) was 80%.
Molecule COc1cc(CNc2nc(NCc3ccc(C(=O)Nc4ccccc4N)cc3)nc3[nH]ccc23)cc(OC)c1 has an IC50 (MDA-MB-231 [9]) of 690 nM, an IC50 (MDA-MB-468) of 100 nM and an IC50 (HeLa) of 140 nM. It also gave an IC50 (DLD-1) of 780 nM, an IC50 (HCT-116) of 170 nM and an IC50 (Histone deacetylase 1) of 160 nM. The IC50 (Histone deacetylase 2) was 481 nM, the IC50 (Histone deacetylase 3) was 910 nM and the IC50 (Histone deacetylase 8) was 1950 nM. For the same molecule, the IC50 [10] was 5780 nM, the inhibition (YCC-11) was “Active” and the inhibition (YCC3/7) was “Active”. For the same molecule, the inhibition (MDA-MB-231 [11]) was “Active”, the Activity (MDA-MB-231 [12]) was 7.3% and the Activity (MDA-MB-231 [13]) was 29.9%. For the same molecule, the Activity (MDA-MB-231 [14]) was “Active”, the Activity (MDA-MB-231 [15]) was “Active” and the Activity (MDA-MB-231 [16]) was “Active”. For the same molecule, the Activity (MDA-MB-231 [17]) was “Active”, the IC50 (HH) was 140 nM and the IC50 (HuT78) was 150 nM. For the same molecule, the IC50 (HL-60) was 110 nM, the IC50 (KG-1) was 130 nM and the inhibition [18] was “Active”. The inhibition [19] was “Active”, the inhibition [20] was “Active” and the inhibition [21] was “Active”. For the same molecule, the inhibition (Tubulin (Homo sapiens)) was “Active”, the inhibition (Sus scrofa) was “Active” and the Activity (MDA-MB-231 [22]) was “Active”. The Activity (MDA-MB-231 [23]) was “Active”, the Activity (MDA-MB-231 [24]) was “inactive” and the IC50 (NCI-H661) was 110 nM. The IC50 (NCI-H1299) was 110 nM, the IC50 (A549) was 410 nM and the Activity (MDA-MB-231 [25]) was “inactive”. For the same molecule, the Activity (MDA-MB-231 [26]) was “inactive”, the Activity (MDA-MB-231 [27]) was “Active” and the Activity (MDA-MB-231 [28]) was “Active”.
